Test [1] concerns facial blood flow. The note with it: rat, trigeminal ganglion stimulation; cited from earlier work.
In a further test the test system is middle meningeal artery. To be noted: rats, electrical stimulation of the dura mater, prior administration; cited from earlier work.
Test [2] deals with T1, recombinant human CL receptor/RAMP1 (Homo sapiens, UniProt O60894+Q16602).
T1 construct: expressed in transfected cells; membranes
The test can be described thus: Recombinant Receptor Binding Assay (125I-hCGRP). To be noted: exemplary compounds of the invention. As to the method: Recombinant Receptor: Human CL receptor (Genbank accession number L76380) was subcloned into the expression vector pIREShyg2 (BD Biosciences Clontech) as a 5′NheI and 3′ PmeI fragment. Human RAMP 1 (Genbank accession number AJ001014) was subcloned into the expression vector pIRESpuro2 (BD Biosciences Clontech) as a 5′NheI and 3′NotI fragment. HEK 293 cells (human embryonic kidney cells; ATCC #CRL-1573) were cultured in DMEM with 4.5 g/L glucose, 1 mM sodium pyruvate and 2 mM glutamine supplemented with 10% fetal bovine serum (FBS), 100 units/mL penicillin and 100 μg/mL streptomycin, and maintained at 37° C. and 95% humidity. Cells were subcultured by treatment with 0.25% trypsin with 0.1% EDTA in HBSS. Stable cell line generation was accomplished by co-transfecting 10 μg of DNA with 30 μg Lipofectamine 2000 (Invitrogen) in 75 cm^2 flasks. CL receptor and RAMP1 expression constructs were co-transfected in equal amounts. Twenty-four hours after transfection the cells were diluted and selective medium (growth medium+300 μg/mL hygromycin and 1 μg/mL puromycin) was added the following day. A clonal cell line was generated by single cell deposition utilizing a FACS Vantage SE (Becton Dickinson). Growth medium was adjusted to 150 μg/mL hygromycin and 0.5 μg/mL puromycin for cell propagation.
Recombinant Receptor Binding Assay: Cells expressing recombinant human CL receptor/RAMP1 were washed with PBS and harvested in harvest buffer containing 50 mM HEPES, 1 mM EDTA and Complete™ protease inhibitors (Roche). The cell suspension was disrupted with a laboratory homogenizer and centrifuged at 48,000 g to isolate membranes. The pellets were resuspended in harvest buffer plus 250 mM sucrose and stored at −70° C. For binding assays, 20 μg of membranes were incubated in 1 mL binding buffer (10 mM HEPES, pH 7.4, 5 mM MgCl2, and 0.2% BSA) for 3 h at room temperature containing […] ^125I-hCGRP (GE Healthcare) and antagonist. The assay was terminated by filtration through 96-well GFB glass fiber filter plates (PerkinElmer) that had been blocked with 0.05% polyethyleneimine. The filters were washed 3 times with ice-cold assay buffer (10 mM HEPES, pH 7.4, and 5 mM MgCl2). Scintillation fluid was added and the plates were counted on a Topcount (Packard). Non-specific binding was determined and the data analysis was carried out with the apparent dissociation constant (Ki) determined by using a non-linear least squares fitting the bound CPM data to the equation below:
[formula] Where Y is observed CPM bound, Ymax is total bound counts, Ymin is non specific bound counts, (Ymax−Ymin) is specific bound counts, % Imax is the maximum percent inhibition, % I min is the minimum percent inhibition, radiolabel is the probe, and the Kd is the apparent dissociation constant for the radioligand for the receptor as determined by hot saturation experiments.

Test [3] relates to acute attacks of migraine. To be noted: clinical trials; cited from earlier work.
In test [4] the test system is headache induced by CGRP infusion. The note with it: control group; cited from earlier work.
The test system of test [5] is facial blood flow. To be noted: marmoset, electrical stimulation of the trigeminal ganglion; cited from earlier work.

Counter-ions that a name gives are not always drawn. Where no end group is shown, it is not given here.

One may read the Ki as a dissociation constant, usually derived from enzyme kinetics or from competition with a known ligand.

T1 sequence (Q16602 23-461): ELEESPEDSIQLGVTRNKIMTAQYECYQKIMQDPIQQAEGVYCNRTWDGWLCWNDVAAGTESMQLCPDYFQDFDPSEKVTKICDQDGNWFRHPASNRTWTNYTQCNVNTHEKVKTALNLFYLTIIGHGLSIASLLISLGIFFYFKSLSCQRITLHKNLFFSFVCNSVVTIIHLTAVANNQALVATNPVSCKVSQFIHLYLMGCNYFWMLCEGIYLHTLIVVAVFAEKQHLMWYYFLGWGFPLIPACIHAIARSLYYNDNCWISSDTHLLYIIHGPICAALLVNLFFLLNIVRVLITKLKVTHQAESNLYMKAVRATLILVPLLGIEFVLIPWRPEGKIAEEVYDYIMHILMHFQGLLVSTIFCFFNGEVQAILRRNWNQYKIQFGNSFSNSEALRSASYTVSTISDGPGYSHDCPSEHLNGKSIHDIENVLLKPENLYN
T1 sequence (O60894 27-148): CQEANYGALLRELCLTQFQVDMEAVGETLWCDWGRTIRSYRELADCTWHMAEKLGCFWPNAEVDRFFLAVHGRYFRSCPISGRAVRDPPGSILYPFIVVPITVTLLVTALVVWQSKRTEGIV

Turning to “CGRP(8-37) (VTHRLAGLLSRSGGVVKNNFVPTNVGSKAF; ends and bridges not checked; UniProt P06881 90-119, looked up, fragment) [a peptide CGRP receptor antagonist]”, in the test on facial blood flow [1], the “effect on increased facial blood flow” value is reported as “inhibited”. Besides, the “effect on increase in diameter of the middle meningeal artery” value in the test with middle meningeal artery was “blocked”. For `C[C@@H]1[C@H](c2ccccc2)C[C@H](NC(=O)c2ccc3c(c2)C[C@@]2(C3)C(=O)Nc3ncc(C#N)cc32)C(=O)N1CC(F)(F)F` [Example 16], the Ki in test [2] was 0.13 nM. `C[C@@H]1[C@H](c2c(F)c(F)cc(F)c2F)C[C@H](NC(=O)c2ccc3c(c2)C[C@@]2(C3)C(=O)Nc3ncncc32)C(=O)N1CC(F)(F)F` [Example 20]: the Ki in test [2] came to 0.021 nM. For `O=C(N[C@@H]1CC[C@@H](c2cccc(F)c2F)CN(CC(F)(F)F)C1=O)N1CCC(n2c(=O)[nH]c3ncccc32)CC1` [telcagepant], the “effectiveness in treating acute attacks of migraine” value in test [3] is listed as “antimigraine effectiveness”. With `C[C@@H]1[C@H](c2ccccc2)C[C@H](NC(=O)c2ccc3c(c2)C[C@@]2(C3)C(=O)Nc3ncccc32)C(=O)N1CC(F)(F)F` [Example 1, (2R)-N-[(3S,5S,6R)-6-Methyl-2-oxo-5-phenyl-1-(2,2,2-trifluoroethyl)piperidin-3-yl]-2′-oxo-1,1′,2′,3-tetrahydrospiro[indene-2,3′-pyrrolo[2,3-b]pyridine]-5-carboxamide], in test [2], the inhibition constant Ki came to 0.079 nM.

In the case of `O=C(N[C@H]1C[C@@H](c2c(Cl)cccc2Cl)CN(CC(F)(F)F)C1=O)c1ccc2c(c1)C[C@@]1(C2)C(=O)Nc2ncccc21` [Example 9], the Ki in test [2] turned out to be 0.24 nM. The same measure, in the same setting: the value for `C[C@@H]1[C@H](c2cccc(Cl)c2)C[C@H](NC(=O)c2ccc3c(c2)C[C@@]2(C3)C(=O)Nc3ncccc32)C(=O)N1CC(F)(F)F` [Example 2, (2R)-N-[(3S,5S,6R)-5-(3-Chlorophenyl)-6-methyl-2-oxo-1-(2,2,2-trifluoroethyl)piperidin-3 yl]-2′-oxo-1,1′,2′,3-tetrahydrospiro[indene-2,3′-pyrrolo[2,3-b]pyridine]-5-carboxamide] was 0.17 nM. Same read-out and setting: next, `O=C(N[C@H]1C[C@@H](c2cc(F)cc(F)c2)CN(CC(F)(F)F)C1=O)c1ccc2c(c1)C[C@@]1(C2)C(=O)Nc2ncccc21` [Example 4]: 0.18 nM. On the same count and under the same terms, the value for `CC(C)CN1C[C@H](c2cccc(F)c2F)C[C@H](NC(=O)c2ccc3c(c2)C[C@@]2(C3)C(=O)Nc3ncccc32)C1=O` [Example 14] was 0.032 nM; that for `C[C@@H]1[C@H](c2c(F)ccc(F)c2F)C[C@H](NC(=O)c2ccc3c(c2)C[C@@]2(C3)C(=O)Nc3ncccc32)C(=O)N1CC(F)(F)F` [Example 12] was 0.025 nM; that for `C[C@@H]1[C@H](c2cc(F)cc(F)c2F)C[C@H](NC(=O)c2ccc3c(c2)C[C@@]2(C3)C(=O)Nc3ncccc32)C(=O)N1CC(F)(F)F` [Example 3, (2R)-N-1-[(3S,5S,6R)-6-Methyl-2-oxo-1-(2,2,2-trifluoroethyl)-5-(2,3,5-trifluorophenyl)piperidin-3-yl]-2′-oxo-1,1′,2′,3-tetrahydrospiro[indene-2,3′-pyrrolo[2,3-b]pyridine]-5-carboxamide hydrochloride] was 0.039 nM. In the case of `O=C(N[C@H]1C[C@@H](c2cccc(F)c2F)CN(CC(F)(F)F)C1=O)c1ccc2c(c1)C[C@@]1(C2)C(=O)Nc2ncccc21` [Example 5], the Ki in test [2] turned out to be 0.061 nM. Take `NCCCC[C@H](NC(=O)[C@@H](Cc1cc(Br)c(O)c(Br)c1)NC(=O)N1CCC(N2Cc3ccccc3NC2=O)CC1)C(=O)N1CCN(c2ccncc2)CC1` [BIBN4096BS]: the “effectiveness in treating acute attacks of migraine” value in test [3] is listed as “effective in treating acute attacks of migraine”. The “prevention of headache induced by CGRP infusion” value in test [4] is “able to prevent headache induced by CGRP infusion”. Also, in the test with facial blood flow [5], the “effect on increase in facial blood flow” value is “blocked”.
